# In patent US10351573B2, “Benzoic acid, benzoic acid derivatives and heteroaryl carboxylic acid conjugates of hydrocodone, prodrugs, methods of making and uses thereof” (KemPharm, Inc., priority 2009, dated 2019):
# “Also recorded” adds a separate entry of the source. Ends that are not written are not given here.
# Columns and labels:
# [1] = Hydrolysis to hydrocodone in 1 N hydrochloric acid for 1 hour
# [2] = Chemical stability: hydrolysis of conjugates in water for one hour; format: physicochemical
# Description: Exemplary conjugates of hydrocodone of the present technology and control test conjugates not of the present technology were tested for chemical stability under conditions similar to what a potential drug abuser may use to “extract” the active portion of the molecule, for example dissolved in water, hydrochloric acid or sodium bicarbonate either at ambient temperature or 100° C.
# [3] = Oral PK profiles in rats (plasma hydrocodone, hydromorphone, intact Bz-HC by LC/MS/MS); conditions: equivalent to 2 mg/kg hydrocodone freebase
# [4] = Hydrolysis in 5% NaHCO3 for one hour; format: physicochemical
# [5] = Water solubility / feasibility of intranasal or intravenous dosing
# [6] = Intranasal PK profile in rats; conditions: equivalent to 2 mg/kg hydrocodone freebase
# [7] = Example 22: intranasal crushed / oral intact tablets human PK study vs HB/APAP
# [8] = Oral PK profiles in dogs; conditions: equivalent to 2 mg/kg hydrocodone freebase
# [9] = Tamper resistance: solvent hydrolysis studies; format: physicochemical
# Description: In order to further evaluate the tamper-resistant properties of Bz-HC, a wide variety of Bz-HC solvent extraction studies were performed. […] The prodrug is not cleaved and no hydrocodone becomes available. […] We also conducted a wide variety of Bz-HC solvent hydrolysis studies in our own laboratories.
# [10] = Example 20: intact Bz-HC in plasma samples of Examples 13-18; format: in vivo; conditions: humans, oral, LLOQ
# Description: Validated LC/MS/MS methods were used to measure plasma concentrations of Bz-HC, hydrocodone, hydromorphone and acetaminophen (APAP). The lower limits of quantitation (LLOQ) for Bz-HC, hydrocodone, hydromorphone, and APAP in plasma were 25 pg/mL, 250 pg/mL, 25 pg/mL, and 0.025 μg/mL, respectively for examples 14-18. For example 13, the lower limits of quantitation (LLOQ) for Bz-HC, hydrocodone, hydromorphone were 0.5 ng/mL.
# LC/MS/MS analyses were performed in order to attempt to measure intact Bz-HC concentrations in the plasma samples obtained from any of the blood samples described above in Examples 13-18. However, all plasma concentrations of intact Bz-HC were <LLOQ (25 pg/mL) and no PK analyses could be performed
# [11] = system: trypsin, pancreatin, pepsin and various esterases; test: Enzymatic tampering studies; format: in vitro ADME
# Description: Without being bound by theory, it is believed that metabolism of Bz-HC after oral administration that allows for the rapid release of therapeutic amounts of hydrocodone requires the combinations and processes of the esterases and other enzymes functioning in the living enterocytes and liver tissue inside the body.
# [12] = human, plasma, inhaled or intranasal, 13.34 mg
molecule,measurement,setting,value
2-aminobenzoate hydrocodone [Compound 2-ABz-HC],%-release in 1N HCl,[1]; 100° C.,16%
same,%-release in 1N HCl,[1]; ambient (~20° C.),0%
same,%-release (conjugate hydrolyzed) in water,[2]; 100° C.,0%
same,%-release (conjugate hydrolyzed) in water,[2]; ambient (about 20° C.),0%
same,"AUC of hydrocodone, % lower than Hydrocodone.BT",[3],approximately 35%
same,"AUC of hydromorphone, % lower than Hydrocodone.BT",[3],approximately 25%
same,"Cmax of hydrocodone, % lower than Hydrocodone.BT",[3],~60%
same,"Cmax of hydromorphone, % lower than Hydrocodone.BT",[3],~50%
COc1ccc(C(=O)OC2=CC[C@H]3[C@H]4Cc5ccc(OC)c6c5[C@@]3(CCN4C)C2O6)cc1O (stereo partly shown) [3-OH-4-MeO-Bz-HC],%-release in 1N HCl,[1]; 100° C.,35%
same,%-release in 1N HCl,[1]; ambient (~20° C.),0%
same,%-release in 5% NaHCO3,"[4]; 5% NaHCO3, 100° C.",36%
same,%-release in 5% NaHCO3,"[4]; 5% NaHCO3, ambient (~20° C.)",0%
same,water solubility (in words),[5],poorly water soluble; also recorded: hydrophobic
"COc1ccc2c3c1OC1C(OC(=O)CCCCC(=O)O)=CC[C@H]4[C@@H](C2)N(C)CC[C@]314 (stereo partly shown) [Adipate-HC, reference compound]",%-release in 1N HCl,[1]; 100° C.,100%
same,%-release in 1N HCl,[1]; ambient (~20° C.),13%
same,%-release in 5% NaHCO3,"[4]; 5% NaHCO3, 100° C.",100%
same,%-release in 5% NaHCO3,"[4]; 5% NaHCO3, ambient (~20° C.)",3%
same,"AUC for hydromorphone (FIG. 8), % higher than Bz-HC",[6],approximately 750%
same,"AUC for hydromorphone (so in the source); FIG. 7, hydrocodone curves), % higher than Bz-HC",[6],approximately 280%
same,"Cmax for hydromorphone (FIG. 8), % higher than Bz-HC",[6],~660%
same,"Cmax for hydromorphone (so in the source); FIG. 7, hydrocodone curves), % higher than Bz-HC",[6],~60%
same,water solubility (in words),[5],water soluble
"COc1ccc2c3c1OC1C(OC(=O)c4ccccc4)=CCC4C(C2)N(C)CCC314 (stereo not shown) [Bz-HC, benzoate-hydrocodone]",half-life,"[7]; human, plasma, inhaled or intranasal",66.6 min
same,AUC(0-inf),[7]; [12],13.3 ± 8.86 ng·h/mL
same,AUC(0-t),[7]; [12],13.2 ± 8.86 ng·h/mL
same,Tmax,[7]; [12],27 min
same,"Tlast of Bz-HC (time of the last quantifiable concentration), median",[7]; intranasal crushed Bz-HC.HCl/APAP 13.34/650 mg,6.22 h
same,AUC value for intact Bz-HC as % of the AUC value for hydrocodone,[8],approximately 10%
same,%-release of Hydrocodone,"[9]; Acetone, ambient temperature, 0.5 h",0%
same,%-release of Hydrocodone,"[9]; Acetone, ambient temperature, 1 h",0%
same,%-release of Hydrocodone,"[9]; Acetone, ambient temperature, 4 h",0%
same,%-release of Hydrocodone,"[9]; Acetone, at boiling point, 0.5 h",0%
same,%-release of Hydrocodone,"[9]; Acetone, at boiling point, 1 h",0%
same,%-release of Hydrocodone,"[9]; Acetone, at boiling point, 4 h",0%
same,%-release of Hydrocodone,"[9]; Ethanol, ambient temperature, 0.5 h",0%
same,%-release of Hydrocodone,"[9]; Ethanol, ambient temperature, 1 h",0%
same,%-release of Hydrocodone,"[9]; Ethanol, ambient temperature, 4 h",0%
same,%-release of Hydrocodone,"[9]; Ethanol, at boiling point, 0.5 h",0%
same,%-release of Hydrocodone,"[9]; Ethanol, at boiling point, 1 h",0%
same,%-release of Hydrocodone,"[9]; Ethanol, at boiling point, 4 h",0%
same,%-release of Hydrocodone,"[9]; Ethyl acetate, ambient temperature, 0.5 h",0%
same,%-release of Hydrocodone,"[9]; Ethyl acetate, ambient temperature, 1 h",0%
same,%-release of Hydrocodone,"[9]; Ethyl acetate, ambient temperature, 4 h",0%
same,%-release of Hydrocodone,"[9]; Ethyl acetate, at boiling point, 0.5 h",0%
same,%-release of Hydrocodone,"[9]; Ethyl acetate, at boiling point, 1 h",0%
same,%-release of Hydrocodone,"[9]; Ethyl acetate, at boiling point, 4 h",0%
same,%-release of Hydrocodone,"[9]; Methanol, ambient temperature, 0.5 h",0%
same,%-release of Hydrocodone,"[9]; Methanol, ambient temperature, 1 h",0%
same,%-release of Hydrocodone,"[9]; Methanol, ambient temperature, 4 h",0%
same,%-release of Hydrocodone,"[9]; Methanol, at boiling point, 0.5 h",0%
same,%-release of Hydrocodone,"[9]; Methanol, at boiling point, 1 h",0%
same,%-release of Hydrocodone,"[9]; Methanol, at boiling point, 4 h",0%
same,%-release of Hydrocodone,"[9]; Methyl ethyl ketone, ambient temperature, 0.5 h",0%
same,%-release of Hydrocodone,"[9]; Methyl ethyl ketone, ambient temperature, 1 h",0%
same,%-release of Hydrocodone,"[9]; Methyl ethyl ketone, ambient temperature, 4 h",0%
same,%-release of Hydrocodone,"[9]; Methyl ethyl ketone, at boiling point, 0.5 h",0%
same,%-release of Hydrocodone,"[9]; Methyl ethyl ketone, at boiling point, 1 h",0%
same,%-release of Hydrocodone,"[9]; Methyl ethyl ketone, at boiling point, 4 h",0%
same,%-release of Hydrocodone,"[9]; Octane, ambient temperature, 0.5 h",0%
same,%-release of Hydrocodone,"[9]; Octane, ambient temperature, 1 h",0%
same,%-release of Hydrocodone,"[9]; Octane, ambient temperature, 4 h",0%
same,%-release of Hydrocodone,"[9]; Octane, at boiling point, 0.5 h",0%
same,%-release of Hydrocodone,"[9]; Octane, at boiling point, 1 h",0%
same,%-release of Hydrocodone,"[9]; Octane, at boiling point, 4 h",0%
same,%-release of Hydrocodone,"[9]; Petrol ether, ambient temperature, 0.5 h",0%
same,%-release of Hydrocodone,"[9]; Petrol ether, ambient temperature, 1 h",0%
same,%-release of Hydrocodone,"[9]; Petrol ether, ambient temperature, 4 h",0%
same,%-release of Hydrocodone,"[9]; Petrol ether, at boiling point, 0.5 h",0%
same,%-release of Hydrocodone,"[9]; Petrol ether, at boiling point, 1 h",0%
same,%-release of Hydrocodone,"[9]; Petrol ether, at boiling point, 4 h",0%
same,%-release of Hydrocodone,"[9]; Tetrahydrofuran, ambient temperature, 0.5 h",0%
same,%-release of Hydrocodone,"[9]; Tetrahydrofuran, ambient temperature, 1 h",0%
same,%-release of Hydrocodone,"[9]; Tetrahydrofuran, ambient temperature, 4 h",0%
same,%-release of Hydrocodone,"[9]; Tetrahydrofuran, at boiling point, 0.5 h",0%
same,%-release of Hydrocodone,"[9]; Tetrahydrofuran, at boiling point, 1 h",0%
same,%-release of Hydrocodone,"[9]; Tetrahydrofuran, at boiling point, 4 h",0%
same,%-release of Hydrocodone,"[9]; Toluene, ambient temperature, 0.5 h",0%
same,%-release of Hydrocodone,"[9]; Toluene, ambient temperature, 1 h",0%
same,%-release of Hydrocodone,"[9]; Toluene, ambient temperature, 4 h",0%
same,%-release of Hydrocodone,"[9]; Toluene, at boiling point, 0.5 h",0%
same,%-release of Hydrocodone,"[9]; Toluene, at boiling point, 1 h",0%
same,%-release of Hydrocodone,"[9]; Toluene, at boiling point, 4 h",0%
same,%-release of Hydrocodone,"[9]; Water, ambient temperature, 0.5 h",0%
same,%-release of Hydrocodone,"[9]; Water, ambient temperature, 1 h",0%
same,%-release of Hydrocodone,"[9]; Water, ambient temperature, 4 h",0%
same,%-release of Hydrocodone,"[9]; Water, at boiling point, 0.5 h",0%
same,%-release of Hydrocodone,"[9]; Water, at boiling point, 1 h",0%
same,%-release of Hydrocodone,"[9]; Water, at boiling point, 4 h",0%
same,%-release of Hydrocodone,"[9]; Xylene, ambient temperature, 0.5 h",0%
same,%-release of Hydrocodone,"[9]; Xylene, ambient temperature, 1 h",0%
same,%-release of Hydrocodone,"[9]; Xylene, ambient temperature, 4 h",0%
same,%-release of Hydrocodone,"[9]; Xylene, at boiling point, 0.5 h",0%
same,%-release of Hydrocodone,"[9]; Xylene, at boiling point, 1 h",0%
same,%-release of Hydrocodone,"[9]; Xylene, at boiling point, 4 h",0%
same,AUC for intact Bz-HC as % of the AUC value for hydrocodone,[3],approximately 10%
same,AUC for intact Bz-HC as % of the AUC value for hydromorphone,[3],~3%
same,plasma concentrations of intact Bz-HC,[10],< 0.025 ng/mL
same,release of hydrocodone from the prodrug by enzymes (in words),[11],no significant release of hydrocodone
same,solubility at physiological pH (in words),[5]; human physiological pH of 7.4 (blood),highly insoluble
same,water solubility (in words),[5],hydrophobic; also recorded: poor water solubility
COc1ccc2c3c1OC1C(OC(=O)c4cccc(O)c4)=CC[C@H]4[C@@H](C2)N(C)CC[C@]314 (stereo partly shown) [Compound 3-OH-Bz-HC],water solubility (in words),[5],poorly water soluble; also recorded: hydrophobic
COc1ccc(C(=O)OC2=CC[C@H]3[C@H]4Cc5ccc(OC)c6c5[C@@]3(CCN4C)C2O6)cc1 (stereo partly shown) [Compound 4-MeO-Bz-HC],%-release (conjugate hydrolyzed) in water,[2]; 100° C.,0%
same,%-release (conjugate hydrolyzed) in water,[2]; ambient (about 20° C.),0%
same,water solubility (in words),[5],hydrophobic
COc1ccc2c3c1OC1C(OC(=O)c4ccc(O)cc4)=CC[C@H]4[C@@H](C2)N(C)CC[C@]314 (stereo partly shown) [Compound 4-OH-Bz-HC],%-release in 1N HCl,[1]; 100° C.,30%
same,%-release in 1N HCl,[1]; ambient (~20° C.),0%
same,%-release in 5% NaHCO3,"[4]; 5% NaHCO3, 100° C.",23%
same,%-release in 5% NaHCO3,"[4]; 5% NaHCO3, ambient (~20° C.)",1%
same,%-release (conjugate hydrolyzed) in water,[2]; 100° C.,0%
same,%-release (conjugate hydrolyzed) in water,[2]; ambient (about 20° C.),0%
same,water solubility (in words),[5],hydrophobic
"COc1ccc2c3c1OC1C(OC(=O)COCC(=O)O)=CC[C@H]4[C@@H](C2)N(C)CC[C@]314 (stereo partly shown) [Diglycolate-HC, reference compound]",water solubility (in words),[5],water soluble
"COc1ccc2c3c1OC1C(OC(=O)c4cccnc4)=CCC4C(C2)N(C)CCC314 (stereo not shown) [Nicotinate-HC, nicotinate-hydrocodone]",AUC values of hydrocodone and hydromorphone compared to Hydrocodone.BT (in words),[3],within the range of bioequivalence
same,water solubility (in words),[5],hydrophobic
COc1ccc2c3c1OC1C(OC(=O)c4ccc5c(c4)OCO5)=CC[C@H]4[C@@H](C2)N(C)CC[C@]314 (stereo partly shown) [Piperonylate-HC],water solubility (in words),[5],hydrophobic
same,water solubility (in words),[5]; listed as piperonylate-HC,poorly water soluble
"Tyr-Tyr-Phe-Phe-Ile-Hydrocodone (YYFFI-Hydrocodone) [YYFFI-HC, reference compound]",%-release in 5% NaHCO3,"[4]; 5% NaHCO3, 100° C.",70%
same,%-release in 5% NaHCO3,"[4]; 5% NaHCO3, ambient (~20° C.)",0%
